{"source": "patent US11702418B2", "about": "“SOS1 inhibitors” (priority 2019, dated 2023)", "key": {"[1]": {"biological_target": "recombinant human SOS1 polypeptide (amino acids 560-1049) (Homo sapiens (Human), UniProt Q07889)", "sequence (Q07889 560-1049)": "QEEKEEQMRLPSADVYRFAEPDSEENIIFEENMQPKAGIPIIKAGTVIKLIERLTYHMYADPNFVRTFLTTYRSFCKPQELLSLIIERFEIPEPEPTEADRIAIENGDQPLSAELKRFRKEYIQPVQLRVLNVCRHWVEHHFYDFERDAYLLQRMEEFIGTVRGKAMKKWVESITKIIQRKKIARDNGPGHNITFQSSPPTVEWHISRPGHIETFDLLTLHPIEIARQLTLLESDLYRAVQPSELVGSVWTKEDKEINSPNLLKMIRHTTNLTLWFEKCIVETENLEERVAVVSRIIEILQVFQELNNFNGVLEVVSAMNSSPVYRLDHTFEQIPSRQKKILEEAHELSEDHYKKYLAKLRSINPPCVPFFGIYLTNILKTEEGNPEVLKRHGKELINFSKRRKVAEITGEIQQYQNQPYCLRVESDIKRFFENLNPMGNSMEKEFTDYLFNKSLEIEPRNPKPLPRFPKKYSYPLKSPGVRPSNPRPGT", "experiment": "biochemical", "type": "binding", "settings": "read-out: Ki, Inhibition of Labeled Tracer Binding to SOS1", "experimental": "The ability of a compound of Formula (I) to bind to SOS1 was measured using a HTRF displacement assay. […] After a 1-hour incubation at room temperature, the HTRF signal was measured using Clairostar plate reader (BMG Labtech) according to the manufacturer's instructions. Excitation filter EX-TR was used, and emission 1 was detected at 650-610 nm and emission 2 detected at 620-610 nm. The HTRF ratio was calculated using the formula: [emission 1/emission 2]*10000.\nBackground signals were calculated from well with a 10 μM inhibitor, known to inhibit 100% at that concentration. The background subtracted signals were converted to % binding relative to DMSO controls. Data were analyzed using XLFIT software (IDBS) using a Morrison equation for competitive binding and Ki's were generated compound of Formula (I)."}, "pERK in MKN1 cells": {"test_system": "pERK in MKN1 cells", "experiment": "cells", "type": "cell-based", "settings": "Homo sapiens", "experimental": "The cells were incubated for approximately 0.5-1 hour with the compounds solubilized in DMSO at 37° C. Cells were immediately fixed by adding 50 μL of 4% formaldehyde to all wells in a fume hood and the plates were incubated for 20 minutes at room temperature. The formaldehyde was discarded from the plates and 150 μL of ice-cold methanol was added to permeabilize the cells for 10 minutes at −20° C. The methanol was discarded from each of the plates and any liquid remaining in the plate by tapping the plate against paper towels. […] The plates were incubated overnight at 4° C. on a shaker.\nOn Assay day 2, the primary antibody solution was removed. […] The secondary antibody solution as removed and each plate was washed with PBST 3× times. Any liquid remaining was discarded and the plate was imaged using the Licor Odyssey machine according to the manufacturer's instruction, using a set focus length at 3 mm and both 800 nm and 700 nm filters. The GAPDH normalized scan values for each well were divided by the average of vehicle wells to get the % of pERK inhibition. The IC50 values were then calculated with the Graph pad Prism software."}, "[2]": {"settings": "HTRF displacement, Cy5 labelled tracer, Morrison equation for competitive binding"}, "[3]": {"settings": "MKN-1, pERK inhibition, In-Cell Western, MKN1 or H358 cells (Table 24 does not say which), 0.5-1 hour incubation, read-out: IC50"}}, "note": "Structures can show the parent of a compound that is named as a salt. Where two headings read alike, the source gives them in different places.", "data": [{"compound": "Cc1c(C#N)cccc1[C@@H](C)Nc1nnc(C)c2ccc(N3CCC(N4CCC4)CC3)cc12", "note": "[Example 10-68, (R)-3-(1-((7-(4-(azetidin-1-yl)piperidin-1-yl)-4-methylphthalazin-1-yl)amino)ethyl)-2-methylbenzonitrile]", "values": [{"measurement": "Ki", "setting": "[1]; [2]", "value": 0.00075, "unit": "µM"}, {"measurement": "IC50", "setting": "pERK in MKN1 cells; [3]", "value": 0.036, "unit": "µM"}]}, {"compound": "Cc1c(C#N)cccc1[C@@H](C)Nc1nnc(C)c2ccc(N3CC4(CCN(C)C4=O)C3)cc12", "note": "[Example 10-69, (R)-2-methyl-3-(1-((4-methyl-7-(6-methyl-5-oxo-2,6-diazaspiro[3.4]octan-2-yl)phthalazin-1-yl)amino)ethyl)benzonitrile]", "values": [{"measurement": "Ki", "setting": "[1]; [2]", "value": 0.00307, "unit": "µM"}, {"measurement": "IC50", "setting": "pERK in MKN1 cells; [3]", "value": 0.039, "unit": "µM"}]}, {"compound": "Cc1c(C#N)cccc1[C@@H](C)Nc1nnc(C)c2ccc(N3CCN(c4cnn(C)c4)CC3)cc12", "note": "[Example 10-70, (R)-2-methyl-3-(1-((4-methyl-7-(4-(1-methyl-1H-pyrazol-4-yl)piperazin-1-yl)phthalazin-1-yl)amino)ethyl)benzonitrile]", "values": [{"measurement": "Ki", "setting": "[1]; [2]", "value": 0.00089, "unit": "µM"}, {"measurement": "IC50", "setting": "pERK in MKN1 cells; [3]", "value": 0.015, "unit": "µM"}]}, {"compound": "Cc1c(C#N)cccc1[C@@H](C)Nc1nnc(C)c2ccc(N3C[C@H]4CC[C@@H]3CN4C)cc12", "note": "[Example 10-71, 2-methyl-3-((R)-1-((4-methyl-7-((1R,4R)-5-methyl-2,5-diazabicyclo[2.2.2]octan-2-yl)phthalazin-1-yl)amino)ethyl)benzonitrile]", "values": [{"measurement": "Ki", "setting": "[1]; [2]", "value": 0.00039, "unit": "µM"}, {"measurement": "IC50", "setting": "pERK in MKN1 cells; [3]", "value": 0.019, "unit": "µM"}]}, {"compound": "Cc1ncccc1[C@@H](C)Nc1nnc(C)c2ccc(N3CCOCC3)cc12", "note": "[Example 10-72, (R)-4-methyl-N-(1-(2-methylpyridin-3-yl)ethyl)-7-morpholinophthalazin-1-amine]", "values": [{"measurement": "Ki", "setting": "[1]; [2]", "value": 0.0461, "unit": "µM"}, {"measurement": "IC50", "setting": "pERK in MKN1 cells; [3]", "value": 0.466, "unit": "µM"}]}, {"compound": "Cc1c(C#N)cccc1[C@@H](C)Nc1nnc(C)c2ccc(N3CC4(CCN(C)C4)C3)cc12", "note": "[Example 10-73, (R)-2-methyl-3-(1-((4-methyl-7-(6-methyl-2,6-diazaspiro[3.4]octan-2-yl)phthalazin-1-yl)amino)ethyl)benzonitrile formate salt]", "values": [{"measurement": "Ki", "setting": "[1]", "value": 0.00063, "unit": "µM"}, {"measurement": "IC50", "setting": "pERK in MKN1 cells; MKN-1", "value": 0.049, "unit": "µM"}]}, {"compound": "Cc1c(C#N)cccc1[C@@H](C)Nc1nnc(C)c2ccc(N3CC(C)(N(C)C)C3)cc12", "note": "[Example 10-74, (R)-3-(1-((7-(3-(dimethylamino)-3-methylazetidin-1-yl)-4-methylphthalazin-1-yl)amino)ethyl)-2-methylbenzonitrile Hydrochloride salt]", "values": [{"measurement": "Ki", "setting": "[1]", "value": 0.00426, "unit": "µM"}, {"measurement": "IC50", "setting": "pERK in MKN1 cells; MKN-1", "value": 0.065, "unit": "µM"}]}, {"compound": "Cc1c(C#N)cccc1[C@@H](C)Nc1nnc(C)c2ccc(N3CC(N(C)C)C3)cc12", "note": "[Example 10-75, (R)-3-(1-((7-(3-(dimethylamino)azetidin-1-yl)-4-methylphthalazin-1-yl)amino)ethyl)-2-methylbenzonitrile Hydrochloride salt]", "values": [{"measurement": "Ki", "setting": "[1]", "value": 0.00651, "unit": "µM"}, {"measurement": "IC50", "setting": "pERK in MKN1 cells; MKN-1", "value": 0.056, "unit": "µM"}]}, {"compound": "Cc1nnc(N[C@H](C)c2cccc(C(F)(F)F)c2F)c2cc(N3CC(N(C)C)C3)ccc12", "note": "[Example 10-76, (R)-7-(3-(dimethylamino)azetidin-1-yl)-N-(1-(2-fluoro-3-(trifluoromethyl)phenyl)ethyl)-4-methylphthalazin-1-amine]", "values": [{"measurement": "Ki", "setting": "[1]; [2]", "value": 0.00344, "unit": "µM"}, {"measurement": "IC50", "setting": "pERK in MKN1 cells; [3]", "value": 0.085, "unit": "µM"}]}, {"compound": "Cc1nnc(N[C@H](C)c2cccc(C(F)(F)F)c2F)c2cc(N3CCOCC3)ccc12", "note": "[Example 10-77, (R)-N-(1-(2-fluoro-3-(trifluoromethyl)phenyl)ethyl)-4-methyl-7-morpholinophthalazin-1-amine]", "values": [{"measurement": "Ki", "setting": "[1]; [2]", "value": 0.00075, "unit": "µM"}, {"measurement": "IC50", "setting": "pERK in MKN1 cells; [3]", "value": 0.102, "unit": "µM"}]}, {"compound": "Cc1nnc(N[C@H](C)c2cccc(C(F)(F)F)c2F)c2cc(N3CC(C)(N(C)C)C3)ccc12", "note": "[Example 10-78, (R)-7-(3-(dimethylamino)-3-methylazetidin-1-yl)-N-(1-(2-fluoro-3-(trifluoromethyl)phenyl)ethyl)-4-methylphthalazin-1-amine]", "values": [{"measurement": "Ki", "setting": "[1]; [2]", "value": 0.00116, "unit": "µM"}, {"measurement": "IC50", "setting": "pERK in MKN1 cells; [3]", "value": 0.114, "unit": "µM"}]}, {"compound": "Cc1c(C#N)cccc1[C@@H](C)Nc1nnc(C)c2ccc(N3CC4(COCCN4C)C3)cc12", "note": "[Example 10-79, (R)-2-methyl-3-(1-((4-methyl-7-(5-methyl-8-oxa-2,5-diazaspiro[3.5]nonan-2-yl)phthalazin-1-yl)amino)ethyl)benzonitrile Formate salt]", "values": [{"measurement": "Ki", "setting": "[1]", "value": 0.00415, "unit": "µM"}, {"measurement": "IC50", "setting": "pERK in MKN1 cells; MKN-1", "value": 0.016, "unit": "µM"}]}]}
